EC50 data for three compounds are collected here from paper PMC4891047, “A 20(S)-protopanoxadiol derivative overcomes multi-drug resistance by antagonizing ATP-binding cassette subfamily B member 1 transporter function” (Oncotarget, 2016).

The target in experiment [1] is T1, ABCB1 (Homo sapiens, UniProt P08183).
T1 construct: membrane vesicles (Pgp-Glo assay system)
Description: biochemical.

The target in experiment [2] is T1, ABCB1. Description: biochemical. The source holds these as a separate data set.

Each structure is given as a SMILES string. Where two headings read alike, the source gives them in different places.

As a reminder, the EC50 is the concentration at which the effect is half-maximal. Low values mean a more potent agent, high ones a less potent agent.

T1 sequence (P08183 whole entry): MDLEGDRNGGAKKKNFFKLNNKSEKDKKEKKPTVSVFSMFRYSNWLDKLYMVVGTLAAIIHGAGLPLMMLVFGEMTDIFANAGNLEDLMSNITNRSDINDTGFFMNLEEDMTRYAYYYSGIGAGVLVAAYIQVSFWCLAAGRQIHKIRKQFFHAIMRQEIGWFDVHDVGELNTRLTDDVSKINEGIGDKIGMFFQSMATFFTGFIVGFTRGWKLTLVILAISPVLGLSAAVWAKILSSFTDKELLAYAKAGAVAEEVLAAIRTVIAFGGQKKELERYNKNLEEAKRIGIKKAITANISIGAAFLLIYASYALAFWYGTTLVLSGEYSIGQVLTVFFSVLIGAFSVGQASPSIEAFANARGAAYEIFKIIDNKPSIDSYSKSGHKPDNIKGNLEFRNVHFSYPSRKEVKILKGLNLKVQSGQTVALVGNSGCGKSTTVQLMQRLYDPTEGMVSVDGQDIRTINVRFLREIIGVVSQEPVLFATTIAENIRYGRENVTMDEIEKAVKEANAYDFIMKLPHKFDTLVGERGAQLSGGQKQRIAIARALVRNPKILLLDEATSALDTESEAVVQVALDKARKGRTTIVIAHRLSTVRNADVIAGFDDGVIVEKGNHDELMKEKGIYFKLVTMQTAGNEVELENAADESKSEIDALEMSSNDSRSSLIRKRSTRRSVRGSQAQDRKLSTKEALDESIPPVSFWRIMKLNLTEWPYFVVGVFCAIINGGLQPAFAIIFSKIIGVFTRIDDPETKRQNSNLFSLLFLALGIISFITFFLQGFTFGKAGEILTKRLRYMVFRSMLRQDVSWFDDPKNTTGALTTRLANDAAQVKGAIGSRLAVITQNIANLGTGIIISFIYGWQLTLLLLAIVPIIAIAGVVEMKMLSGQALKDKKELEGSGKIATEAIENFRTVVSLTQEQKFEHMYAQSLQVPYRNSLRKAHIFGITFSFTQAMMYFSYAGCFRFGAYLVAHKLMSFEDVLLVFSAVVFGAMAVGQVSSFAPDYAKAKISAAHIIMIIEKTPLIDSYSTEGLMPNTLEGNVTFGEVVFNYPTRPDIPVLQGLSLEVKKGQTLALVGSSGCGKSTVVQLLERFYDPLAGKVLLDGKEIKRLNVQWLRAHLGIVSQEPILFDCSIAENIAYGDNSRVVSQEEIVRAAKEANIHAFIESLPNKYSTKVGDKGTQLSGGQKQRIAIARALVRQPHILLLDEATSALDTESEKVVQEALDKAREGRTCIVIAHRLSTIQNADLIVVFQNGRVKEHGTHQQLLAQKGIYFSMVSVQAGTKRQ

In turn, `CC(C)=CCC[C@](C)(O)[C@H]1CC[C@]2(C)[C@@H]1[C@H](O)C[C@@H]1[C@@]3(C)CC[C@H](O)C(C)(C)[C@@H]3CC[C@]12C` [PPD, 20(S)-protopanoxadiol] gave an EC50 at ABCB1 [1] of 3130 nM. This counts as single-digit micromolar. Regarding `CC1(C)[C@@H](O)CC[C@]2(C)[C@H]3C[C@@H](O)[C@@H]4[C@@H]([C@@](C)(O)CCCNCc5ccccc5)CC[C@@]4(C)[C@]3(C)CC[C@@H]12` [PPD12], the EC50 on ABCB1 [2] was found to be 1520 nM. In other words, the single-digit micromolar range. On ABCB1 [1], `COc1ccc(CNCCC[C@](C)(O)[C@H]2CC[C@]3(C)[C@@H]2[C@H](O)C[C@@H]2[C@@]4(C)CC[C@H](O)C(C)(C)[C@@H]4CC[C@]23C)cc1` [PPD11] returned an EC50 of 2380 nM. That is a single-digit micromolar value.
